# Assay results taken from patent US11679123B2, “N-acylated hyaluronic acid for hyperuricemia and gouty arthritis” (Queen's University at Kingston, priority 2018, dated 2023).
# Tested on: inflammation factors
# Experiment: Serum inflammation factors by ELISA in rats with MSU-induced acute gout
# Assay type: in vivo, Wistar rats
# Settings: for 6-Keto-PGF1α / IFN-γ / IL-1α / IL-1β / IL-6 / IL-8 / IL-10 / IL-16 / IP-10 / MCP-1 / MIP-1α / NF-κB / PGE2 / TNF-α / TNF-β: serum, MSU-induced acute gout rats, mean ± S.D., n=10
# Experimental: An experimental model of MSU-induced gouty arthritis was used in order to evaluate the anti-inflammatory activities of BHA. Rats were randomly divided into five groups (n=10), include a control group (NC), a model group (MC), a 0.3 mg/kg colchicine group (COL), a 10 μg BHA group (10BHA) and a 50 μg BHA group (50BHA). MSU crystals were suspended in 0.9% sterile saline (30 mg/mL) prior to use. The colchicine group rats were orally administrated colchicine (0.3 mg/kg) for 8 days, and all rats except for the control group were injected with 3 mg of MSU (Sigma, USA) at the 6th day into the right ankle synovial space 1 h after gavage feeding. Meanwhile a turbid sample of MSU mixed with 100 μg of BHA or 500 μg of BHA per mL of solution for 10BHA rats or 50BHA rats. At the 8th day, 1 h after the administration of the final agents, blood was sampled from the caudal veins of the rats and the right ankle joints of the rats were collected and fixed in 4% paraformaldehyde. Serum was separated and stored at −80° C. prior to analysis (FIG. 2A, E).
# The serum levels of interleukin-1α (IL-1α, 41734), IL-1β (43360), interleukin-6 (IL-6, 41731), interleukin-8 (IL-8, 41716), IL-10 (41736), interleukin-16 (IL-16, 41628), C—X—C motif chemokine 10 (CXCL10, 41570), monocyte chemoattractant protein 1 (MCP-1, 41640), macrophage inflammatory protein 1α (MIP-1α, 41645), interferon gamma (IFN-γ, 41739), TNF-α (41721), tumor necrosis factor-β (TNF-β, 41673), nuclear factor κ-light-chain-enhancer of activated B cells (NF-κB, 43358), 6-keto-prostaglandin F-1α (6-Keto-PGF1α, 41809) and prostaglandin E2 (PGE2, 41609) in rats were determined by the ELISA method using related Elisa Kits (Yuanye Bio-Technology Co. Ltd, Shanghai, China) according to the manufacturer's instructions.
# [1] = 10 μg BHA intra-articular with MSU (10BHA)
# [2] = 50 μg BHA intra-articular with MSU (50BHA)
substance,measurement,setting,value
N-butyrylated HA [BHA],decrease of serum IL-8 compared to rats injected with MSU,"10 μg BHA, P<0.05",7.13%
same,decrease of serum MCP-1 compared to rats injected with MSU,"10 μg BHA, P<0.05",7.76%
same,increase of serum IL-10 compared to rats injected with MSU,"10 μg BHA, P<0.05",9.49%
same,decrease of serum IFN-γ compared to rats injected with MSU,"50 μg BHA, P<0.05",33.18%
same,decrease of serum IL-1β compared to rats injected with MSU,"50 μg BHA, P<0.05",5.56%
same,decrease of serum IL-8 compared to rats injected with MSU,"50 μg BHA, P<0.05",6.55%
same,decrease of serum MCP-1 compared to rats injected with MSU,"50 μg BHA, P<0.05",15.58%
same,6-Keto-PGF1α,[1],257 ± 20.8
same,IFN-γ,[1],107.4 ± 7.6 pg/mL
same,IL-1α,[1],71.5 ± 11.2 pg/mL
same,IL-1β,[1],19.6 ± 1.6 pg/mL
same,IL-6,[1],78.5 ± 5.6 pg/mL
same,IL-8,[1],213.8 ± 11.4 pg/mL
same,IL-10,[1],12 ± 0.9 pg/mL
same,IL-16,[1],399.3 ± 14.8 pg/mL
same,IP-10,[1],154.3 ± 18^ pg/mL
same,MCP-1,[1],321.2 ± 20.5 pg/mL
same,MIP-1α,[1],282.8 ± 23.6 pg/mL
same,NF-κB,[1],589.8 ± 104. pg/mL
same,PGE2,[1],209.7 ± 17.3 pg/mL
same,TNF-α,[1],155.9 ± 11.4 pg/mL
same,TNF-β,[1],139.1 ± 25.7 pg/mL
same,6-Keto-PGF1α,[2],262 ± 10.8
same,IFN-γ,[2],75.4 ± 31.7 pg/mL
same,IL-1α,[2],77.4 ± 13 pg/mL
same,IL-1β,[2],18.8 ± 0.8 pg/mL
same,IL-6,[2],75 ± 5.3 pg/mL
same,IL-8,[2],216.6 ± 11.6 pg/mL
same,IL-10,[2],11.6 ± 1.1 pg/mL
same,IL-16,[2],401.2 ± 25.1 pg/mL
same,IP-10,[2],150.5 ± 7.5 pg/mL
same,MCP-1,[2],292 ± 27.8 pg/mL
same,MIP-1α,[2],283.9 ± 12.7 pg/mL
same,NF-κB,[2],513 ± 74.1 pg/mL
same,PGE2,[2],193.2 ± 12.7 pg/mL
same,TNF-α,[2],152.7 ± 12.1 pg/mL
same,TNF-β,[2],129 ± 21.9 pg/mL
